Reference: patent US12589099B2 (priority 2021, dated 2026)

Columns and labels:
Assay type in all cases: in vivo, male Wistar rats
[1] = tested on: NeuN positive cells in DG, CA1, CA3 and cortex; assay: NeuN IHC, neuronal cell loss 35 days post-TBI; details: 4.5 mg/kg IN twice daily; 35 days following TBI
Description: (§1) Young adult (2-3 months) male Wistar rats were subjected to a moderate traumatic brain injury (TBI) induced by controlled cortical impact (CCI). Animal models of TBI including the CCI model and functional tests have been described in detail in peer reviewed publications (Xiong et al., 2013, Nat Rev Neurosci.; Zhang et al., 2016, J Neurosurg.; Zhang et al., 2016, Neurochem Int.; Zhang et al., 2021, J Neurotrauma). Injury consisted of a single impact at 4.0 m/sec, 2.5 mm deformation to the left parietal cortex. In addition, a group of animals was left healthy/not injured to serve as a healthy control.
The substance used in this study was ALPHA-1062 at 4.5 mg/kg. As control treatment (vehicle) purified water was administered intranasally (IN). […]
Histological assessment was performed including quantitative image analysis protocols; followed by statistical analysis of the data. […]
For cell counting and quantitation NeuN+ cells were examined in the ipsilateral cortex, DG, CA1, and CA3 regions of the ipsilateral hippocampus. […] The number of BrdU+ cells (red-fluorophore) and NeuN (green-fluorophore)/BrdU-colabeled cells (yellow after merge) were counted. […] The immune-positive cells were determined and divided by the measured areas and presented as numbers per square mm. […]

[2] = Body weight over the 35-day TBI study (overt toxicity); details: 4.5 mg/kg IN twice daily
Description: as §1
(§2) The animals were divided into 3 groups: • 1) TBI+Vehicle (purified water, n=10) • 2) TBI+ALPHA-1062 (4.5 mg/kg) (n=10) • 3) Healthy/not injured and not treated (Sham surgery) (n=10)
(§3) The substance used in this study was ALPHA-1062 at 4.5 mg/kg. As control treatment (vehicle) purified water was administered intranasally (IN). The ALPHA-1062 and the control treatment were initiated 2 hours after injury and continued twice daily (with a 6-hour interval) for 35 consecutive days.

[3] = tested on: moderate traumatic brain injury (TBI) induced by controlled cortical impact (CCI); assay: Morris water maze (MWM) test after TBI
Procedure: FIG. 2: The figure illustrates functional tests that are carried out on healthy (sham surgery) no treatment, vehicle treated and ALPHA-1062 treated rats to assess sensorimotor and cognitive function after TBI. Sensimotor function tests. a) The figure depicts tests to assess the modified neurological severity score (mNSS). […] The animal is required to balance over a grid and the frequency of steps missing the grid are counted. This test assesses the functionality of the injured parietal cortex of the rat's brain. c) The adhesive removal test consists of applying adhesive tape on each forepaw of the animal and measuring the time-to-contact and the time-to-remove them. This behavior requires correct paw and mouth sensitivity (time-to-contact) and correct dexterity (time-to-remove). Cognitive function tests: a) This picture illustrates the Morris water maze that comprises that a rat is placed in a large circular pool (picture on the left) and is required to find an invisible platform that allows it to escape the water by using various visuo-spatial cues. This test is used to study spatial learning and memory and assesses hippocampal and select cortical brain region function. Usually, the path of the rat through the pool is tracked (picture on the right) and the time spend in the proximity of the platform as well as the time needed until the platform is found by the rat are measured. b) For the new/novel object recognition (NOR) test, after a habituation time in the test space (picture on far left) rats are given the opportunity to explore two identical objects (A) for a predetermined period of time (picture in the middle). After a delay, the animals are then presented with two objects to explore, one of which is the same as in the first exploration trial (A), the other a new object (B) (picture on the right). Depending on the length of the delay between the two trials or depending on the extend of cortical damage, the rats will either explore the novel object for a greater time period, indicating memory for the familiar object, or will explore the novel and familiar objects for the same amount of time, indicating a lack of recall or loss of memory for the familiar object presented during the initial trial.
as §1, §2, §3
During the in vivo part of the study cognitive functional tests were performed by conducting Morris water maze (MWM) tests and novel object recognition tests on all animals at 5 weeks after TBI, with the MWM test being performed on days 31-35 following TBI (see Table 1).
The Morris water maze (MWM) is a test used in behavioral neuroscience to study spatial learning and memory, for example in rats. It enables spatial learning and memory to be studied, and can also be used to assess damage to hippocampus and select cortical regions of the brain. […]

[4] = 4.5 mg/kg IN twice daily, days 33 to 35

COc1ccc2c3c1O[C@H]1C[C@@H](OC(=O)c4ccccc4)C=C[C@@]31CCN(C)C2 [ALPHA-1062, (4aS,6R,8aS)-5,6,9,10,11,12-hexahydro-3-methoxy-11-methyl-4aH-[1]benzofuro[3a,3,2-ef][2]benzazepin-6-ol benzoate]
neuron numbers (NeuN) in DG, CA1, CA3 and cortex, compared to vehicle [1]: reduced loss of neurons | neuronal cell numbers (NeuN) compared to sham surgery animals [1]: did not differ significantly | overt toxicity ([2]; 35 days, compared to vehicle animals): did not show overt toxicity | body weight compared to vehicle treated or untreated animals ([2]; each time point D0-D35, P>0.05): no significant alterations in body weight | body weight compared to day zero (D0), days 29-35 ([2]; within group): significant body weight gain | body weight compared to day zero (D0), days 1-7 ([2]; within group, p<0.05): significant body weight loss | MWM % time in the correct quadrant, compared to uninjured (sham surgery) animals [3, 4]: equivalent amount of time | MWM % time in the correct quadrant, compared to vehicle [3, 4]: statistically significantly better | MWM latency to find the hidden escape platform, compared to uninjured (sham) animals [3, 4]: as well as the uninjured (sham) animals | MWM latency to find the hidden escape platform, compared to vehicle [3, 4]: statistically significantly better | Morris Water Maze (MWM), performance over SHAM ([3]; rats after TBI, ALPHA-1062 treatment compared to healthy sham animals): equivalent to | Morris Water Maze (MWM), performance over VEHICLE ([3]; rats after TBI, ALPHA-1062 treatment compared to vehicle treatment): superior
